{"source": "patent US20200038413A1", "about": "“METHODS OF TREATING PARKINSON'S DISEASE USING AMINOSTEROL COMPOSITIONS” (Enterin, Inc., priority 2018, published 2020)", "origin": "cited, not measured here", "key": {"[1]": {"system": "PD population", "settings": "short term placebo controlled trial, PD constipation; cited from earlier work"}, "[2]": {"settings": "single and repeat intravenous administration, alone or in combination; cited from earlier work"}}, "note": "Counter-ions that a name gives are not always drawn.", "data": [{"smiles": "CCCCC(F)(F)[C@@]1(O)CC[C@H]2[C@@H](CC(=O)[C@@H]2CCCCCCC(=O)O)O1", "note": "[Lubiprostone]", "values": [{"measurement": "proportion of those treated in whom effective", "setting": "[1]", "value": "about 50%"}]}, {"smiles": "CC(C)[C@@H](CC[C@@H](C)[C@H]1CC[C@H]2[C@@H]3[C@H](O)C[C@H]4C[C@@H](NCCCNCCCCN)CC[C@]4(C)[C@H]3CC[C@]12C)OS(=O)(=O)O", "note": "[Squalamine dilactate salt]", "values": [{"measurement": "well tolerated dose", "setting": "[2]", "value": "at least 300 mg/m^2"}]}]}
